Residue numbers refer to the chain shown, from its start.
What was measured:
Assay type in all cases: binding
[1] = target: T1, GLUT9 (Homo sapiens, UniProt Q9NRM0, N458A); assay: MST with purified protein
T1 construct: gene SLC2A9; full length human SLC2A9, N-terminal twin strep and FLAG tag
T1 sequence (Q9NRM0 1-540 N458A): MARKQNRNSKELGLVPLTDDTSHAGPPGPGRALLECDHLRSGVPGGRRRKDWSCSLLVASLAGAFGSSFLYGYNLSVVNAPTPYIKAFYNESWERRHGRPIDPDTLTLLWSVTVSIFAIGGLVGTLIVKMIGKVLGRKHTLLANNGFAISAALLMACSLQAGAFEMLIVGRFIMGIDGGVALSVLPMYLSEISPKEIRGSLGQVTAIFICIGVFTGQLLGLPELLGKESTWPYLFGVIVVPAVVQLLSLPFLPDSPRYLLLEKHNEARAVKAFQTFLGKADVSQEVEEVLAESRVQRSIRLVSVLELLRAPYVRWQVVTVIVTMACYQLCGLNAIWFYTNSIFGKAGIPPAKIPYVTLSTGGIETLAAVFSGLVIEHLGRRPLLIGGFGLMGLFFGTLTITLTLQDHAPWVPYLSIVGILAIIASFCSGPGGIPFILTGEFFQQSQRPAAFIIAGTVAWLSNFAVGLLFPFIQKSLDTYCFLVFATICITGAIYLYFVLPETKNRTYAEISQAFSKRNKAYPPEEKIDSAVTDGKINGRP

[2] = target: T2, GLUT9 (Homo sapiens, UniProt Q9NRM0); assay: cryo-EM structure ([…] Å), MST Kd; patch clamp IC50 […]
T2 construct: gene SLC2A9; full length human SLC2A9, N-terminal twin strep and FLAG tag
T2 sequence (Q9NRM0 1-540): T1 sequence (Q9NRM0 1-540 N458A) with A458N

[3] = target: T3, GLUT9 (Homo sapiens, UniProt Q9NRM0, Y327A); assay: MST with purified protein
T3 construct: gene SLC2A9; full length human SLC2A9, N-terminal twin strep and FLAG tag
T3 sequence (Q9NRM0 1-540 Y327A): T1 sequence (Q9NRM0 1-540 N458A) with Y327A, A458N

[4] = target: T4, GLUT9 (Homo sapiens, UniProt Q9NRM0, W336A); assay: MST with purified protein
T4 construct: gene SLC2A9; full length human SLC2A9, N-terminal twin strep and FLAG tag
T4 sequence (Q9NRM0 1-540 W336A): T1 sequence (Q9NRM0 1-540 N458A) with W336A, A458N

[5] = target: T5, GLUT9 (Homo sapiens, UniProt Q9NRM0, C427A); assay: MST with purified protein
T5 construct: gene SLC2A9; full length human SLC2A9, N-terminal twin strep and FLAG tag
T5 sequence (Q9NRM0 1-540 C427A): T1 sequence (Q9NRM0 1-540 N458A) with C427A, A458N

[6] = target: T6, GLUT9 (Homo sapiens, UniProt Q9NRM0, Y327Q); assay: MST with purified protein
T6 construct: gene SLC2A9; full length human SLC2A9, N-terminal twin strep and FLAG tag
T6 sequence (Q9NRM0 1-540 Y327Q): T1 sequence (Q9NRM0 1-540 N458A) with Y327Q, A458N

[7] = target: T7, GLUT9 (Homo sapiens, UniProt Q9NRM0, N333A); assay: MST with purified protein
T7 construct: gene SLC2A9; full length human SLC2A9, N-terminal twin strep and FLAG tag
T7 sequence (Q9NRM0 1-540 N333A): T1 sequence (Q9NRM0 1-540 N458A) with N333A, A458N

[8] = target: T8, GLUT9 (Homo sapiens, UniProt Q9NRM0, E364A); assay: MST with purified protein
T8 construct: gene SLC2A9; full length human SLC2A9, N-terminal twin strep and FLAG tag
T8 sequence (Q9NRM0 1-540 E364A): T1 sequence (Q9NRM0 1-540 N458A) with E364A, A458N

[9] = target: T9, GLUT9 (Homo sapiens, UniProt Q9NRM0, W336F); assay: MST with purified protein
T9 construct: gene SLC2A9; full length human SLC2A9, N-terminal twin strep and FLAG tag
T9 sequence (Q9NRM0 1-540 W336F): T1 sequence (Q9NRM0 1-540 N458A) with W336F, A458N

[10] = target: T2, GLUT9; assay: cryo-EM structure ([…] Å), MST Kd; patch clamp transport current

Row | Kd [6] [µM] | Kd [7] [µM] | Kd [8] [µM] | Kd [9] [µM] | Kd [10] [µM] | Compound | Kd [1] [µM] | Kd [2] [µM] | Kd [3] [µM] | Kd [4] [µM] | Kd [5] [µM]
1 |  |  |  |  |  | O=c1cc(-c2ccc(O)cc2)oc2cc(O)cc(O)c12 [API, apigenin] | 4.1 ± 1.1 | 0.5 ± 0.1 | 2.2 ± 0.7 | 1.3 ± 0.3 | 1 ± 0.2
2 | 867 ± 168 | 472 ± 52.2 | 681 ± 126 | 361 ± 80.3 | 231 ± 17.1 | O=c1[nH]c(=O)c2[nH]c(=O)[nH]c2[nH]1 [UA, urate] |  |  |  |  | 

Source: paper PMC11169512, “Structural basis for urate recognition and apigenin inhibition of human GLUT9” (Nature Communications, 2024)
